Read-outs that look alike come from different tables or passages of the source.
Test system: cholesterol absorption
Assay: Inhibition of cholesterol absorption in rats fed 1% cholesterol:0.5% cholic acid diet
Type: in vivo, male Sprague-Dawley rats
Conditions: rat, 2 weeks; for response vs control in vivo at 0.03 % / response vs control in vivo at 0.001 % / response vs control in vivo at 0.003 % / response vs control in vivo at 0.01 %: po, 336 h; for response vs control in vivo at 0.03 %: dose .03% of the diet; for response vs control in vivo at 0.001 %: dose .001% of the diet; for response vs control in vivo at 0.01 %: dose .01% of the diet
Experimental: Inhibition of cholesterol absorption was determined by feeding male Sprague-Dawley rats, weighing 150-170 g, a 1% cholesterol:0.5% cholic acid diet for 2 weeks. The diet also contained compounds being tested at a dose of 0.001, 0.003, 0.01, or 0.03% of the diet. Control rats were fed the same diet without any compound. At the end of the test, the rats were sacrificed by decapitation. Blood was collected, centrifuged at […] for 10 minutes at 4° C.; and the serum was then analyzed for cholesterol and triglycerides enzymatically by the method of Trinder, P., Analyst, 77, 321 (1952) on a Centrifichem 400 analyzer. Livers were removed, a 0.4 g sample was taken from the center of the large lobe, and the sample was subjected to saponification using 25% saturated potassium hydroxide in ethanol. The resulting neutral sterols were extracted with petroleum ether and the extract analyzed for cholesterol. The effectiveness of the compound in inhibiting cholesterol absorption was measured by the lowering of either serum cholesterol or liver cholesterol relative the values for control rats.
Compounds which produced statistically significant inhibition of cholesterol absorption are considered to be active. Liver sterol (LS) and serum sterol (SS) values are expressed as a percentage of control values.

[1] = read-out: LS (liver sterol), percentage of control values
[2] = read-out: SS (serum sterol), percentage of control values
[3] = dose .003% of the diet, read-out: LS (liver sterol), percentage of control values
[4] = dose .003% of the diet, read-out: SS (serum sterol), percentage of control values

Compound	response vs control in vivo at 0.001 % [1] [%]	response vs control in vivo at 0.001 % [2] [%]	response vs control in vivo at 0.003 % [3] [%]	response vs control in vivo at 0.003 % [4] [%]	also measured
1-(n-Heptyl)-1-[4-(1,5-dimethylhexyl)benzyl]-3-(2,4,6-trifluoromethylphenyl)urea					LS (liver sterol), percentage of control values (dose .003% of the diet): 65 percentage of control values; SS (serum sterol), percentage of control values (dose .003% of the diet): 57 percentage of control values
CC(C)(C)CCN(Cc1ccc(Cl)cc1)C(=O)Nc1ccc(C(F)(F)F)cc1 [1-(3,3-Dimethylbutyl)-1-(4-chlorobenzyl)-3-(4-trifluoromethylphenyl)urea]					response vs control in vivo at 0.03 % [1]: 70%; response vs control in vivo at 0.03 % [2]: 85%
CCCCc1ccc(CN(CCC(C)(C)C)C(=O)Nc2ccc(C(F)(F)F)cc2)cc1 [1-(3,3-Dimethylbutyl)-1-[4-(n-butyl)benzyl]-3-(4-trifluoromethylphenyl)urea]					response vs control in vivo at 0.03 % [1]: 86%; response vs control in vivo at 0.03 % [2]: 100%
CC(C)CCCCN(Cc1ccc(CCC(C)C)cc1)C(=O)Nc1c(F)cc(F)cc1F [1-(Isoheptyl)-1-[4-(isopentyl)benzyl]-3-(2,4,6-trifluorophenyl)urea]	45	33			
CC(C)CCCCN(Cc1ccc(CCC(C)C)cc1)C(=O)Nc1ccc(F)cc1F [1-(Isoheptyl)-1-[4-(isopentyl)benzyl]-3-(2,4-difluorophenyl)urea]			45	24	
Cc1cc(Cl)cc(C)c1NC(=O)N(CCCCC(C)C)Cc1ccc(CCC(C)C)cc1 [1-(Isoheptyl)-1-[4-(isopentyl)benzyl]-3-(4-chloro-2,6-dimethylphenyl)urea]	40	40			
CCCCCCOc1ccc(CN(CCCC)C(=O)Nc2c(C)cc(C)cc2C)cc1 [1-(n-Butyl)-1-(4-hexyloxybenzyl)-3-(2,4-trimethylphenyl)urea]					response vs control in vivo at 0.03 % [1]: 15%; response vs control in vivo at 0.03 % [2]: 54%
CCCCCCCN(Cc1ccc(C(C)CCCC(C)C)cc1)C(=O)Nc1ccc(F)cc1F (stereo not drawn) [1-(n-Heptyl)-1-[4-(1,5-dimethylhexyl)benzyl]-3-(2,4-difluorophenyl)urea]	88	83			
CCCCCCCN(Cc1ccc(C(C)CCCC(C)C)cc1)C(=O)Nc1c(C)cc(Cl)cc1C (stereo not drawn) [1-(n-Heptyl)-1-[4-(1,5-dimethylhexyl)benzyl]-3-(4-chloro-2,6-dimethylphenyl)urea]	100	94			
CCCCCCCN(Cc1ccc(CC(C)(C)C)cc1)C(=O)Nc1c(F)cc(F)cc1F [1-(n-Heptyl)-1-[4-(2,2-dimethylpropyl)phenylmethyl]-3-(2,4,6-trifluorophenyl)urea]			55	38	
CCCCCCCN(Cc1ccc(CC(C)(C)C)cc1)C(=O)Nc1ccc(F)cc1F [1-(n-Heptyl)-1-[4-(2,2-dimethylpropyl)phenylmethyl]-3-(2,4-difluorophenyl)urea]					response vs control in vivo at 0.01 % [1]: 51%; response vs control in vivo at 0.01 % [2]: 22%
CCCCCCCN(Cc1ccc(CC(C)(C)C)cc1)C(=O)Nc1c(C)cc(Cl)cc1C [1-(n-Heptyl)-1-[4-(2,2-dimethylpropyl)phenylmethyl]-3-(4-chloro-2,6-dimethylphenyl)urea]			54	41	
CCCCCCCN(Cc1ccc(CC(C)C(C)CC)cc1)C(=O)Nc1c(F)cc(F)cc1F (stereo not drawn) [1-(n-Heptyl)-1-[4-(2,3-dimethylpentyl)benzyl]-3-(2,4,6-trifluorophenyl)urea]					response vs control in vivo at 0.01 % [1]: 31%; response vs control in vivo at 0.01 % [2]: 33%
CCCCCCCN(Cc1ccc(CC(C)C(C)CC)cc1)C(=O)Nc1ccc(F)cc1F (stereo not drawn) [1-(n-Heptyl)-1-[4-(2,3-dimethylpentyl)benzyl]-3-(2,4-difluorophenyl)urea]					response vs control in vivo at 0.01 % [1]: 63%; response vs control in vivo at 0.01 % [2]: 48%
CCCCCCCN(Cc1ccc(CCOC(C)=O)cc1)C(=O)Nc1ccc(F)cc1F [1-(n-Heptyl)-1-[4-(2-acetoxyethyl)benzyl]-3-(2,4-difluorophenyl)urea]			60	55	
CCCCCCCN(Cc1ccc(CC(CC)CC)cc1)C(=O)Nc1c(F)cc(F)cc1F [1-(n-Heptyl)-1-[4-(2-ethylbutyl)benzyl)-3-(2,4,6-trifluorophenyl)urea]	75	120			
CCCCCCCN(Cc1ccc(CC(CC)CC)cc1)C(=O)Nc1ccc(F)cc1F [1-(n-Heptyl)-1-[4-(2-ethylbutyl)benzyl]-3-(2,4-difluorophenyl)urea]			98	66	

Compound	response vs control in vivo at 0.001 % [1] [%]	response vs control in vivo at 0.001 % [2] [%]	response vs control in vivo at 0.003 % [3] [%]	response vs control in vivo at 0.003 % [4] [%]	also measured
CCCCCCCN(Cc1ccc(CC(CC)CC)cc1)C(=O)Nc1c(C)cc(Cl)cc1C [1-(n-Heptyl)-1-[4-(2-ethylbutyl)benzyl]-3-(4-chloro-2,6-dimethylphenyl)urea]	94	62			
CCCCCCCN(Cc1ccc(CC(CC)CCCC)cc1)C(=O)Nc1c(F)cc(F)cc1F (stereo not drawn) [1-(n-Heptyl)-1-[4-(2-ethylhexyl)benzyl]-3-(2,4,6-trifluorophenyl)urea]	87	82			
CCCCCCCN(Cc1ccc(CC(CC)CCCC)cc1)C(=O)Nc1ccc(F)cc1F (stereo not drawn) [1-(n-Heptyl)-1-[4-(2-ethylhexyl)benzyl]-3-(2,4-difluorophenyl)urea]			56	63	
CCCCCCCN(Cc1ccc(CC(CC)CCCC)cc1)C(=O)Nc1c(C)cc(Cl)cc1C (stereo not drawn) [1-(n-Heptyl)-1-[4-(2-ethylhexyl)benzyl]-3-(4-chloro-2,6-dimethylphenyl)urea]	87	83			
CCCCCCCN(Cc1ccc(CCO)cc1)C(=O)Nc1ccc(F)cc1F [1-(n-Heptyl)-1-[4-(2-hydroxyethyl)benzyl]-3-(2,4-difluorophenyl)urea]			59	52	
CCCCCCCN(Cc1ccc(CC[S+]([O-])C(C)C)cc1)C(=O)Nc1c(C)cc(Cl)cc1C (stereo not drawn) [1-(n-Heptyl)-1-[4-(2-isopropylsulfinylethyl)benzyl]-3-(4-chloro-2,6-dimethylphenyl)urea]			54	45	
CCCCCCCN(Cc1ccc(CCS(=O)(=O)C(C)C)cc1)C(=O)Nc1ccc(F)cc1F [1-(n-Heptyl)-1-[4-(2-isopropylsulfonylethyl)benzyl]-3-(2,4-difluorophenyl)urea]			68	94	
CCCCCCCN(Cc1ccc(CCS(=O)(=O)C(C)C)cc1)C(=O)Nc1c(C)cc(Cl)cc1C [1-(n-Heptyl)-1-[4-(2-isopropylsulfonylethyl)benzyl]-3-(4-chloro-2,6-dimethylphenyl)urea]			54	57	
CCCCCCCN(Cc1ccc(CCSC(C)C)cc1)C(=O)Nc1c(C)cc(Cl)cc1C [1-(n-Heptyl)-1-[4-(2-isopropylthioethyl)benzyl]-3-(4-chloro-2,6-dimethylphenyl)urea]			51	49	
CCCCCCCN(Cc1ccc(CC(C)CC)cc1)C(=O)Nc1c(F)cc(F)cc1F (stereo not drawn) [1-(n-Heptyl)-1-[4-(2-methylbutyl)benzyl]-3-(2,4,6-trifluorophenyl)urea]	64	76			
CCCCCCCN(Cc1ccc(CC(C)CC)cc1)C(=O)Nc1ccc(F)cc1F (stereo not drawn) [1-(n-Heptyl)-1-[4-(2-methylbutyl)benzyl]-3-(2,4-difluorophenyl)urea]					response vs control in vivo at 0.01 % [1]: 42%; response vs control in vivo at 0.01 % [2]: 36%
CCCCCCCN(Cc1ccc(CC(C)CCC)cc1)C(=O)Nc1c(F)cc(F)cc1F (stereo not drawn) [1-(n-Heptyl)-1-[4-(2-methylpentyl)benzyl]-3-(2,4,6-trifluorophenyl)urea]	75	93			
CCCCCCCN(Cc1ccc(CC(C)CCC)cc1)C(=O)Nc1ccc(F)cc1F (stereo not drawn) [1-(n-Heptyl)-1-[4-(2-methylpentyl)benzyl]-3-(2,4-difluorophenyl)urea]			72	53	
CCCCCCCN(Cc1ccc(CC(C)CCC)cc1)C(=O)Nc1c(C)cc(Cl)cc1C (stereo not drawn) [1-(n-Heptyl)-1-[4-(2-methylpentyl)benzyl]-3-(4-chloro-2,6-dimethylphenyl)urea]	56	61			
CCCCCCCN(Cc1ccc(OCCC(C)C)cc1)C(=O)Nc1ccc(F)cc1F [1-(n-Heptyl)-1-[4-(3-methylbutoxy)benzyl]-3-(2,4-difluorophenyl)urea]					response vs control in vivo at 0.01 % [1]: 32%; response vs control in vivo at 0.01 % [2]: 27%
CCCCCCCN(Cc1ccc(CCC(C)CC)cc1)C(=O)Nc1c(F)cc(F)cc1F (stereo not drawn) [1-(n-Heptyl)-1-[4-(3-methylpentyl)benzyl]-3-(2,4,6-trifluorophenyl)urea]			46	36	

Reference: US4623662A, “Antiatherosclerotic ureas and thioureas” (American Cyanamid Company, priority 1985, dated 1986)
